Assay results as given in the supplement of paper PMC8837787.

System: Saccharomyces cerevisiae ABC16-Green Monster
Test: growth inhibition at single dose (up to 150 µM), below the 70% cut-off for dose-response; higher = more potent
Settings: 18 h; 30 °C; YPD
Method in brief: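 Values are percent growth inhibition of drug-sensitive S. cerevisiae ABC16-Green Monster cells. Cells grown overnight in YPD at 30 °C were diluted to log phase (OD600 0.1–0.2), and each library compound was added at a single dose of 150 µM to 200 µl culture per well in 96-well plates, in biological duplicates, beside untreated cultures. OD600 was read at 0 h and after 18 h at 30 °C, and compounds under 70% in both replicates were not taken to dose-response.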

| Compound | growth inhibition at single dose |
| --- | --- |
| Cn1c(Oc2cccc3c2OC(C)(C)C3)c(C#N)c(=O)n(C)c1=O | < 70% |
| CC[n+]1ccccc1/C=C/c1ccc(N(C)C)cc1 | < 70% |
| Cc1cc2nc(NC(=O)C(C)(C)C)nc(Cl)c2n1Cc1ccc(Cl)cc1 | < 70% |
| COc1ccc(CC(=O)N2CCN(C)c3nc4ccccc4nc32)cc1F | < 70% |
| COCCN(C(=O)Cc1cccs1)C(C(=O)NCc1ccc(OC)cc1)c1ccc(C(C)C)cc1 (stereo unspecified) | < 70% |
| CC(C)(C)c1ccc(N[C@@H]2CCCC[C@H]2NC(=O)c2ccco2)cc1 | < 70% |
| NS(=O)(=O)c1cccc(-c2ccc3ncc(N4CCOCC4)nc3c2)c1 | < 70% |
| Cc1ccc(N2C3c4ccccc4N(S(=O)(=O)c4ccc(C)cc4)C2c2ccccc2N3S(=O)(=O)c2ccc(C)cc2)cc1 | < 70% |
| CC(C)(C)NS(=O)(=O)c1cccc2c(N)cccc12 | < 70% |
| CC(C)(C)n1nc(Cc2ccc(F)c(Cl)c2)c2c(N)ncnc21 | < 70% |
| Cc1ccc(C)c(S(=O)(=O)N2CCN(C(=O)c3[nH]nc4ccccc34)CC2)c1 | < 70% |
| Cc1cc(C)c(C#N)c(SCC(=O)N(C)Cc2cnn(-c3ccccc3)c2)n1 | < 70% |
| COCCNC(=O)c1ccc(OC2CCN(Cc3ccc(F)c(F)c3)CC2)c(Cl)c1 | < 70% |
| Cc1cc(C2=NOC(c3cc(Cl)c(F)c(Cl)c3)(C(F)(F)F)C2)ccc1C(=O)NCc1ccc2c(c1)C(C)(C)OB2O (stereo unspecified) | < 70% |
| O=C(NCc1ccco1)N1CCN(Cc2ccc(Cl)s2)CC1 | < 70% |
| COc1ccc2c(c1)CCCC21NC(=O)N(Cc2nc3ccccc3s2)C1=O (stereo unspecified) | < 70% |
| OC(CNC1CCCC1)Cn1c2ccccc2c2ccccc21 (stereo unspecified) | < 70% |
| NC(=O)c1cc(NC(=O)c2cccs2)ccc1N1CCCCC1 | < 70% |
| O=C(NCC1Cc2cccc(-c3ccncc3)c2O1)c1csc2c1CCCC2 (stereo unspecified) | < 70% |
| Cc1ccc(CSCc2ccc(C(=O)NC3CC3)o2)cc1 | < 70% |
| Cc1cccc(Nc2nc(N)c3ccccc3n2)c1 | < 70% |
| CCOc1ccc(-n2cc(-c3ccccc3)c3c(SCc4cc(C)ccc4C)ncnc32)cc1 | < 70% |
| O=C(Nc1ccccc1)c1cn(-c2ccc3c(c2)OCCO3)nn1 | < 70% |

| Compound | growth inhibition at single dose |
| --- | --- |
| Cc1cc(OCC(=O)NCc2ccccc2)c2cc(Br)ccc2n1 | < 70% |
| C#CCNS(=O)(=O)c1ccc(C(=O)Nc2ccccc2O)cc1 | < 70% |
| COc1nc2ccc(Br)cc2cc1[C@@H](c1ccccc1)[C@@](O)(CCN(C)C)c1cccc2ccccc12 | < 70% |
| CC(C)CN(C(=O)c1ccc(N2CCCC2)c([N+](=O)[O-])c1)c1nc2ccccc2s1 | < 70% |
| O=C(Nc1nc(CN2CCOCC2)cs1)c1ccc(-c2ccc(Cl)cc2)s1 | < 70% |
| Cc1cc(C)n(-c2nc(-c3ccccc3)cc(N3CCOCC3)n2)n1 | < 70% |
| CCc1ccc(-n2nnnc2-c2cnc(N)nc2-c2ccccc2)cc1 | < 70% |
| CCOC(=O)c1cc(-c2csc(Nc3c(C)cc(C)cc3C)n2)on1 | < 70% |
| CCc1nc(COC(=O)c2c(C)nsc2NC)cs1 | < 70% |
| Oc1ccc(Cl)cc1CNc1nc2ccccc2[nH]1 | < 70% |
| Cc1ccc(-c2cc(C(=O)Nc3ccc(S(=O)(=O)N4CCCCC4)cc3)[nH]n2)c(O)c1 | < 70% |
| CCOc1ccc(-c2nonc2NC(=O)c2cccc(C)c2)cc1OCC | < 70% |
| O=C(CN1C(=O)CSc2ccc(C(F)(F)F)cc21)Nc1ccc(Cl)cc1 | < 70% |
| CC(=O)c1ccc(NC(=O)CSc2nc(-c3ccccc3Cl)ns2)cc1 | < 70% |
| Nc1ccc(-c2nc3cc(Oc4ccc(Oc5ccc6[nH]c(-c7ccc(N)cc7)nc6c5)cc4)ccc3[nH]2)cc1 | < 70% |
| O=C(Nc1cc(S(=O)(=O)N2CCCC2)ccc1O)c1sccc1-n1cccc1 | < 70% |
| O=C(CN1CCOCC1)Nc1ccc2ncnc(Nc3ccc(OCc4cccc(F)c4)c(Cl)c3)c2c1 | < 70% |
| CN(C)c1cc(CNC(=O)c2cc3c(F)cccc3s2)ccn1 | < 70% |
| Cn1nnnc1SCC(=O)Nc1ccc(C(=O)Nc2ncccc2O)cc1 | < 70% |
| O=C(NCc1cc(Cl)cc(Cl)c1)c1c(C(F)(F)F)nc2ccccn12 | < 70% |
| CCOc1c(Cl)cc(CNC(C)C(O)c2ccccc2)cc1OC (stereo unspecified) | < 70% |
| Cn1ncc(C#N)c1NC(=O)c1cccc(Oc2ccccc2)c1 | < 70% |
| COc1ccc2cc(CNc3ncnc4n[nH]cc34)ccc2c1 | < 70% |

| Compound | growth inhibition at single dose |
| --- | --- |
| O=C1Nc2ccc(Br)cc2C12NCCc1c2[nH]c2ccccc12 (stereo unspecified) | < 70% |
| Cc1ccnc2nc(C(=O)Nc3cc(C(F)(F)F)ccc3N3CCCCCC3)nn12 | < 70% |
| Nn1c(SCC(=O)c2c[nH]c3ccccc23)nnc1C(F)(F)F | < 70% |
| O=C(Nc1ccc(N2CCCC2)cn1)C1CC=CCC1 (stereo unspecified) | < 70% |
| COc1cc(-c2nc(-c3ccc(Sc4ccccc4)cc3)c(-c3ccccc3)[nH]2)cc(OC)c1O | < 70% |
| Cc1ccc(/C(C#N)=C/c2ccc(N(C)C)cc2)cc1 | < 70% |
| CCOC(=O)c1cnc2c(C)cccc2c1Nc1ccc(C(C)=O)cc1 | < 70% |
| Cc1cc(NC(=O)C2c3ccccc3C(=O)N(CC(C)C)C2c2cccs2)no1 (stereo unspecified) | < 70% |
| CC1CC(NC(=O)c2cc3c(=O)n4ccccc4nc3n2C)CC(C)(C)C1 (stereo unspecified) | < 70% |
| CC(NC(=O)c1cccc(Nc2ncccn2)c1)c1cccc(C(F)(F)F)c1 (stereo unspecified) | < 70% |
| CSc1nc2ccc(NC(=O)c3cn4ccccc4n3)cc2s1 | < 70% |
| CC(C)(C)c1ccc(C(=O)Nc2nc3ccccc3s2)cc1 | < 70% |
| CCCCc1c(CCC)c(=N)c2ccccc2n1C | < 70% |
| CC(=O)NCCc1nc2ccccc2n1Cc1ccc(C(C)C)cc1 | < 70% |
| O=C(CC1Sc2ccccc2NC1=O)NCCCn1ccc2ccccc21 (stereo unspecified) | < 70% |
| CO[C@H]1/C=C/O[C@@]2(C)Oc3c(C)c(O)c4c(O)c(/c(=C/NN5CCN(C)CC5)c(O)c4c3C2=O)=N\C(=O)/C(C)=C\C=C/[C@H](C)[C@H](O)[C@@H](C)[C@@H](O)[C@@H](C)[C@H](OC(C)=O)[C@@H]1C | < 70% |
| CN(C(=O)CSc1nnc(COc2ccccc2F)n1N)C1CCCCC1 | < 70% |
| CCCCc1c(C)nc2c(OC)cccc2c1O | < 70% |
| CN(Cc1c(F)cccc1Cl)C(=O)COc1ccc2[nH]c3ccccc3c(=O)c2c1 | < 70% |
| OC1CCC(Nc2nn3cc(-c4ccccc4)nc3s2)CC1 (stereo unspecified) | < 70% |
| O=C(Nc1ccc2c(c1)OC1(CCCCC1)O2)c1ccc[nH]c1=O | < 70% |
| CC1CS(=O)(=O)CCN1/N=C/c1ccc([N+](=O)[O-])o1 (stereo unspecified) | < 70% |
| O=C(Nc1ccnc(-c2cccnc2)n1)c1cc(C(F)(F)F)cc(C(F)(F)F)c1 | < 70% |

| Compound | growth inhibition at single dose |
| --- | --- |
| Cc1cc(C)nc(SCC(=O)N2CCN(C(=O)c3ccco3)CC2)n1 | < 70% |
| CCOc1ccc(CN2CCN(CC(O)COc3ccc(OCC(O)CN4CCN(Cc5ccc(OCC)cc5)CC4)cc3)CC2)cc1 (stereo unspecified) | < 70% |
| CC1=Nc2ccc(Cl)cc2C(O)(c2ccc(C)cc2)N1CCN1CCCCC1 (stereo unspecified) | < 70% |
| Nc1ncnc2c1c(Cc1cccc3ccccc13)nn2CC1CCNCC1 | < 70% |
| Cc1sc(NC(=O)c2ccccc2)c(C(c2cccs2)N2CCN(c3ccccc3)CC2)c1C (stereo unspecified) | < 70% |
| C=CCn1c(C)cc(C(=O)COC(=O)C(O)(c2ccccc2)c2ccccc2)c1C | < 70% |
| CC(=O)c1cc2c(N)c(-c3nc(C(C)(C)C)no3)sc2nc1C | < 70% |
| Cc1c(C)n(Cc2ccc(F)cc2)c2ccc(C(=O)NCc3ccco3)cc12 | < 70% |
| Cc1nc(/C=C/C(=O)Nc2nc3ccccc3[nH]2)cs1 | < 70% |
| Cn1ccnc1Sc1ncnc2sccc12 | < 70% |
| COC(=O)[C@@H](NC(=O)Nc1ccc(-c2nc3ccccc3s2)cc1)C(C)C | < 70% |
| Cc1nccnc1-c1ccnn1C(=O)Nc1cc(Cl)cc(Cl)c1 | < 70% |
| O=C(NC1CCN(c2nccc(C(F)(F)F)n2)CC1)c1cccs1 | < 70% |
| COc1ccnc(Nc2ccc3c(c2)nc2n3CCCCC2)n1 | < 70% |
| CN(C)Cc1ccc(CNc2ncnc3scc(-c4ccccc4)c23)cc1 | < 70% |
| Cc1ccc2[nH]c3c(c2c1)CCCC3NCCCN(C)C (stereo unspecified) | < 70% |
| COCC(C)n1c(C)cc(C(=O)COC(=O)c2cccn2C)c1C (stereo unspecified) | < 70% |
| O=c1cc(-c2ccccc2)[nH]c2ccccc12 | < 70% |
| CC(C)OCc1cc(CN2CCN(c3cccc(Cl)c3)CC2)c(O)c2ncccc12 | < 70% |
| OC[C@H]1O[C@@H](n2c3ccc(Cl)cc3c3c(-c4cc5ccccc5o4)ncnc32)C(O)[C@H]1O (stereo partly specified) | < 70% |
| Cc1cccc(C(=O)Nc2ccnc(N(C)C3CCN(CC(C)C)CC3)c2)c1 | < 70% |
| COc1ccc(S(=O)(=O)N2CCSc3cc(Cl)ccc32)cc1 | < 70% |
